Like-named read-outs stand apart in the source and are kept apart here.
How the values were obtained:
[1] = target: T1, FXR (Homo sapiens, UniProt Q96RI1); test: GeneBLAzer FXR cell-based antagonistic assay (in presence of 400 nM GW4064); set-up: the Gal4 DBD was fused to the LBD of FXR in this assay; host or cells: GeneBLAzer FXR-UAS-bla HEK 293T cells; conditions: for IC50: with 400 nM GW4064, read-out: GB FXR Cell Anta. IC50
T1 sequence (Q96RI1 262-486 limits assumed): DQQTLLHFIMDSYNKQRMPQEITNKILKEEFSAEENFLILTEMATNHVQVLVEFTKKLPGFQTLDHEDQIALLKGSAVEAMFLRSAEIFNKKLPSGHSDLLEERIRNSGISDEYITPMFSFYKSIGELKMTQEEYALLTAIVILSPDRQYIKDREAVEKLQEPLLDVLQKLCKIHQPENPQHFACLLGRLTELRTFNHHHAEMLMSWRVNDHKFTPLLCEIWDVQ
Protocol: A GeneBLAzer FXR cell-based assay was used to investigate the cellular activities of the 1,3,4-trisubstituted-pyrazol-4-carboxamide analogs. The assay detects the levels of a […] reporter controlled by a promoter containing the binding site of the DNA binding domain (DBD) of the GAL4 transcription factor; the Gal4 DBD was fused to the LBD of FXR in this assay.^35
FXR transactivation assays were performed using GeneBLAzer FXR-UAS-bla HEK 293T cells (Invitrogen). Cells were maintained according to the manufacturer's instructions. […] Plates were then incubated in dark for 90 min at room temperature before measuring the fluorescent emissions at 460 nm and 535 nm (using excitation at 400 nm) with an Envision plate reader with bottom read capacity. After background signal subtraction for individual emission channels, emission signals at 460 and 535 nm from each well were used to determine the ratio of 460 nm/535 nm. […] The % activation was calculated using equation 2.
The % inhibition was calculated using equation 3.

[2] = test system: GeneBLAzer FXR-UAS-bla HEK 293T cells; conditions: human, 16 h
Protocol: To examine if certain chemical antagonistic effect was caused by cytotoxicity, the same GeneBLAzer FXR cells were used to perform cytotoxicity assay. This assay was set up like the FXR agonistic assay, with the exception of signal reading. Instead of detecting the reporter activities, CellTiter-Glo® assay was used to detect cell viability. DMSO with cells or without cells group were served as negative (0% Inhibition) or positive (100% Inhibition), respectively.
Cytotoxicity assays were performed side-by-side with the FXR agonistic assay using GeneBLAzer FXR-UAS-bla HEK 293T cells with CellTiter-Glo® Luminescent Cell Viability Assay reagent (Promega). Briefly, cells were maintained in DMEM supplemented with 10% dialyzed FBS, 0.1 mM non-essential amino acids, 25 mM HEPES, 100 μg/ml of hygromycin B, 100 μg/ml of zeocin, 100 units/ml penicillin and 100 μg/ml streptomycin in regular tissue culture flasks. […] As a positive control, the wells in column 24 of each plate were filled with 30 μL assay medium along with 0.5% DMSO. The final DMSO concentration was 0.5% in each assay well. After a 16 h incubation in a cell culture incubator at 37° C., the cell plates were cooled at room temperature for 20 min and then CellTiter-Glo® reagent 20 μl/well was added followed by an incubation for 20 min in the dark to allow the development of optimal luminescence signal. The luminescence signal from each well in plates was collected with an Envision plate reader equipped with Ultra-sensitive Luminescence detector. The DMSO group and no cell group served as negative (0% activation) and positive (100% activation) controls, respectively. The % inhibition was calculated using equation 4 below.

[3] = target: T1, FXR; test: FXR TR-FRET binding assay (DY246 fluorescent probe); conditions: for inhibition at 0.493 µM: at 493 nM; for IC50: mean ± SE; for inhibition at 0.164 µM: at 164 nM
Protocol: The FXR TR-FRET binding assay was performed as previously described^23 with modifications. […] The plate was spun down after a brief shake and incubated at room temperature for 20 min. The TR-FRET emission signals at 520 nm and 490 nm for each well was then collected using a PHERAstar plate reader (BMG LABTECH, Cary, N.C.) with an excitation wavelength of 337 nm, 100-μs delay time, and 200-μs integration time. The 520 nm/490 nm ratio from each well was then calculated. […] The % inhibition of tested chemicals at given concentration was calculated based on negative and positive controls using equation 1.

[4] = read-out: GB FXR Cell Anta. % Inh.
[5] = read-out: FXR TR-FRET Binding % Inh.

| Structure (SMILES) | inhibition at 40 µM [1, 4] [%] | IC50 [1] [nM] | IC50 [3] [nM] | inhibition at 0.164 µM [3, 5] [%] | FXR antagonistic activity, SAR statement in words [1] | further results |
| --- | --- | --- | --- | --- | --- | --- |
| Cc1ccc(-c2nn(-c3ccc(F)cc3)cc2C(=O)Nc2ccc(C)c(S(=O)(=O)N3CCOCC3)c2)cc1 [Compound 4a, 1-(4-fluorophenyl)-N-(4-methyl-3-(morpholinosulfonyl)phenyl)-3-p-tolyl-1H-pyrarazole-4-carboxamide] | 72 ± 2.2 | 2490 ± 6 | 24.3 ± 0.6 | – | – | GB FXR Cell Cyto % Inh. ([2]; 40 μM): 18.5 ± 1.0%; inhibition at 0.493 µM [3, 5]: 95 ± 1.2% |
| Cc1ccc(-c2nn(-c3cccc(Cl)c3)cc2C(=O)Nc2ccc(C)c(S(=O)(=O)N3CCOCC3)c2)cc1 [Compound 4b, 1-(3-Chlorophenyl)-N-(4-methyl-3-(morpholinosulfonyl)phenyl)-3-(p-tolyl)-1H-pyrazole-4-carboxamide] | 60.6 ± 0.9 | 5910 ± 150 | 10.4 ± 0.9 | 99.3 ± 1.1 | – | – |
| Cc1ccc(-c2nn(-c3ccc(Cl)cc3Cl)cc2C(=O)Nc2ccc(C)c(S(=O)(=O)N3CCOCC3)c2)cc1 [Compound 4c, 1-(2,4-Dichlorophenyl)-N-(4-methyl-3-(morpholinosulfonyl)phenyl)-3-(p-tolyl)-1H-pyrazole-4-carboxamide] | 89.9 ± 1.9 | 1240 ± 120 | 14.1 ± 0.3 | 120 ± 7.8 | – | – |
| Cc1ccc(-c2nn(-c3cccc(C(F)(F)F)c3)cc2C(=O)Nc2ccc(C)c(S(=O)(=O)N3CCOCC3)c2)cc1 [Compound 4d, N-(4-Methyl-3-(morpholinosulfonyl)phenyl)-3-(p-tolyl)-1-(3-(trifluoromethyl)phenyl)-1H-pyrazole-4-carboxamide] | 54.8 ± 1.3 | 22300 ± 1140 | 23.9 ± 2.1 | 77.5 ± 4.3 | – | GB FXR Cell Cyto % Inh. ([2]; 40 μM): 7.3 ± 0.2% |
| Cc1ccc(-c2nn(-c3nc4ccccc4s3)cc2C(=O)Nc2ccc(C)c(S(=O)(=O)N3CCOCC3)c2)cc1 [Compound 4e, 1-(Benzo[d]thiazol-2-yl)-N-(4-methyl-3-(morpholinosulfonyl)phenyl)-3-(p-tolyl)-1H-pyrazole-4-carboxamide] | 79.1 ± 2.4 | 7910 ± 1160 | 17.7 ± 0.4 | 102 ± 2.8 | – | GB FXR Cell Cyto % Inh. ([2]; 13.3 μM): 11.5 ± 0.2 (13.3 μM) %; fold improvement of activity compared to Z26476908 ([3]; text says FXR antagonistic activity / potency in hFXR, figures fit TR-FRET IC50): 3 fold |
| CCCCn1cc(C(=O)Nc2ccc(C)c(S(=O)(=O)N3CCOCC3)c2)c(-c2ccc(C)cc2)n1 [Compound 4g, 1-Butyl-N-(4-methyl-3-(morpholinosulfonyl)phenyl)-3-(p-tolyl)-1H-pyrazole-4-carboxamide] | – | 11510 ± 70 | 52.5 ± 4.1 | – | retention of the antagonistic activity | inhibition at 20 µM [1, 4]: 97.9 ± 8.1%; GB FXR Cell Cyto % Inh. ([2]; 4.4 μM): 10.3 ± 0.3%; inhibition at 1.5 µM [3, 5]: 130.1 ± 0.7% |
| Cc1ccc(-c2nn(Cc3cccc(C(F)(F)F)c3)cc2C(=O)Nc2ccc(C)c(S(=O)(=O)N3CCOCC3)c2)cc1 [Compound 4k, N-(4-methyl-3-(morpholinosulfonyl)phenyl)-3-(p-tolyl)-1-(3-(trifluoromethyl)benzyl)-1H-pyrazole-4-carboxamide] | 93.4 ± 3.9 | 515 ± 25.4 | 18.4 ± 1.2 | 99.2 ± 6.4 | – | – |
| COc1cccc(Cn2cc(C(=O)Nc3ccc(C)c(S(=O)(=O)N4CCOCC4)c3)c(C(C)C)n2)c1 [Compound 4m, 3-Isopropyl-1-(3-methoxybenzyl)-N-(4-methyl-3-(morpholinosulfonyl)phenyl)-1H-pyrazole-4-carboxamide] | 99.2 ± 2.7 | 3110 ± 580 | 199 ± 21.2 | – | decreased the potency and affinity | inhibition at 4.4 µM [3, 5]: 101 ± 5.6% |
| COc1cccc(Cn2cc(C(=O)Nc3ccc(C)c(S(=O)(=O)N4CCOCC4)c3)c(-c3ccc(C(F)(F)F)cc3)n2)c1 [Compound 4q, 1-(3-Methoxybenzyl)-N-(4-methyl-3-(morpholinosulfonyl)phenyl)-3-(4-(trifluoromethyl)phenyl)-1H-pyrazole-4-carboxamide] | 97.6 ± 0.9 | 592.7 ± 3 | 30.9 ± 3.6 | 109 ± 3.6 | – | – |
| COCCc1nn(C(C)C)cc1C(=O)Nc1ccc(C)c(S(=O)(=O)N2CCOCC2)c1 [Compound 4r] | 62.5 ± 0.8 | 29600 ± 1750 | 3420 ± 190 | – | loss of potency | inhibition at 40 µM ([3]; at 40 μM, read-out: FXR TR-FRET Binding % Inh.): 98.2 ± 3.8% |
| COCCc1nn(Cc2cccc(OC)c2)cc1C(=O)Nc1ccc(C)c(S(=O)(=O)N2CCOCC2)c1 [Compound 4s] | 95.9 ± 2.4 | 11100 ± 640 | 390 ± 9.4 | – | loss of potency | inhibition at 13.3 µM [3, 5]: 113.5 ± 0.8% |
| COc1cccc(Cn2cc(CNc3ccc(C)c(S(=O)(=O)N4CCOCC4)c3)c(-c3cccc(OC)c3)n2)c1 [Compound 9-3, N-((1-(3-Methoxybenzyl)-3-(3-methoxyphenyl)-1H-pyrazol-4-yl)methyl)-4-methyl-3-(morpholinosulfonyl)aniline] | 3.1 ± 0.1 | – | – | – | – | inhibition at 1.48 µM ([3]; at 1.48 μM, read-out: FXR TR-FRET Binding % Inh.): 39.8 ± 1.8% |

Second part, led by results:

| inhibition at 40 µM [1, 4] [%] | IC50 [1] [nM] | IC50 [3] [nM] | inhibition at 0.164 µM [3, 5] [%] | FXR antagonistic activity, SAR statement in words [1] | Structure (SMILES) | further results |
| --- | --- | --- | --- | --- | --- | --- |
| 99.1 ± 4.4 | 1690 ± 180 | 49.1 ± 9.9 | – | retention of the antagonistic activity | Cc1ccc(-c2nn(C(C)C)cc2C(=O)Nc2ccc(C)c(S(=O)(=O)N3CCOCC3)c2)cc1 [Compound 4f, 1-Isopropyl-N-(4-methyl-3-(morpholinosulfonyl)phenyl)-3-(p-tolyl)-1H-pyrazole-4-carboxamide] | inhibition at 4.4 µM [3, 5]: 131 ± 3.8% |
| 84.4 ± 4.1 | 844 ± 10.3 | 10.2 ± 1.6 | 97.8 ± 1.2 | enhanced antagonistic activity | Cc1ccc(-c2nn(Cc3ccc4ccccc4c3)cc2C(=O)Nc2ccc(C)c(S(=O)(=O)N3CCOCC3)c2)cc1 [Compound 4h, N-(4-Methyl-3-(morpholinosulfonyl)phenyl)-1-(naphthalen-2-ylmethyl)-3-(p-tolyl)-1H-pyrazole-4-carboxamide] | GB FXR Cell Cyto % Inh. ([2]; 4.4 μM): 7.9 ± 0.3 (4.4 μM) % |
| 100 ± 3.2 | 849 ± 69 | 76.9 ± 2.7 | – | – | Cc1ccc(-c2nn(CC3CC3)cc2C(=O)Nc2ccc(C)c(S(=O)(=O)N3CCOCC3)c2)cc1 [Compound 4i, 1-(Cyclopropylmethyl)-N-(4-methyl-3-(morpholinosulfonyl)phenyl)-3-(p-tolyl)-1H-pyrazole-4-carboxamide] | fold decrease of activity for hFXR compared to Z26476908 [3]: 2 fold; inhibition at 1.5 µM [3, 5]: 105 ± 4.9% |
| 97.6 ± 3.7 | 2610 ± 290 | 130 ± 16 | – | – | Cc1ccc(-c2nn(CCCCO)cc2C(=O)Nc2ccc(C)c(S(=O)(=O)N3CCOCC3)c2)cc1 [Compound 4l, 1-(4-Hydroxybutyl)-N-(4-methyl-3-(morpholinosulfonyl)phenyl)-3-(p-tolyl)-1H-pyrazole-4-carboxamide] | GB FXR Cell Cyto % Inh. ([2]; 40 μM): 5.9 ± 0.2%; inhibition at 0.493 µM [3, 5]: 89.3 ± 0.1% |
| 97.8 ± 1.5 | 3490 ± 640 | 160 ± 22.6 | – | – | COc1cccc(-c2nn(C(C)C)cc2C(=O)Nc2ccc(C)c(S(=O)(=O)N3CCOCC3)c2)c1 [Compound 4n, 1-Isopropyl-3-(3-methoxyphenyl)-N-(4-methyl-3-(morpholinosulfonyl)phenyl)-1H-pyrazole-4-carboxamide] | GB FXR Cell Cyto % Inh. ([2]; 4.4 μM): 10.8 ± 0.2%; inhibition at 13.3 µM [3, 5]: 150 ± 6.9% |
| 89.4 ± 4.2 | 1240 ± 90 | 42.8 ± 0.5 | – | slightly decreased antagonistic activity | COc1cccc(Cn2cc(C(=O)Nc3ccc(C)c(S(=O)(=O)N4CCOCC4)c3)c(-c3cccc(OC)c3)n2)c1 [Compound 4o, 1-(3-Methoxybenzyl)-3-(3-methoxyphenyl)-N-(4-methyl-3-(morpholinosulfonyl)phenyl)-1H-pyrazole-4-carboxamide] | inhibition at 0.493 µM [3, 5]: 114 ± 3.3% |

— US10611729B2, “Farnesoid X receptor antagonists” (City of Hope, priority 2014, dated 2020)
